Test results reported in ChEMBL document CHEMBL1137802, “Specific antioxidant activity of caffeoyl derivatives and other natural phenolic compounds: LDL protection against oxidation and decrease in the proinflammatory lysophosphatidylcholine production” (J Nat Prod, 2001).

Columns and labels:
Format in all cases: functional, cell-free
[1] = Antioxidant activity against Cu2+-induced lipid peroxidation in human plasma LDL assessed as conjugated diene formation at 10 umol/L preincubated for 1 hr before Cu2+ challenge measured after 360 mins
[2] = Antioxidant activity against Cu2+-induced lipid peroxidation in human plasma LDL assessed as conjugated diene formation at 20 umol/L preincubated for 1 hr before Cu2+ challenge measured after 90 mins
[3] = Antioxidant activity against Cu2+-induced lipid peroxidation in human plasma LDL assessed as vitamin E consumption at 20 umol/L preincubated for 1 hr before Cu2+ challenge measured after 30 mins
[4] = Antioxidant activity against Cu2+-induced lipid peroxidation in human plasma LDL assessed as conjugated diene formation at 10 umol/L preincubated for 1 hr before Cu2+ challenge measured after 270 mins
[5] = Antioxidant activity against Cu2+-induced lipid peroxidation in human plasma LDL assessed as lysophosphatidylcholine formation at 5 umol/L preincubated for 1 hr before Cu2+ challenge measured after 360 mins
[6] = Antioxidant activity against Cu2+-induced lipid peroxidation in human plasma LDL assessed as lysophosphatidylcholine formation at 5 umol/L preincubated for 1 hr before Cu2+ challenge measured after 210 mins
[7] = Antioxidant activity against Cu2+-induced lipid peroxidation in human plasma LDL assessed as maximal compound concentration at 20 umol/L preincubated for 1 hr before Cu2+ challenge measured after 30 mins relative to compound present at 0 min
[8] = Antioxidant activity against Cu2+-induced lipid peroxidation in human plasma LDL assessed as vitamin E consumption at 20 umol/L preincubated for 1 hr before Cu2+ challenge measured after 45 mins
[9] = Antioxidant activity against Cu2+-induced lipid peroxidation in human plasma LDL assessed as conjugated diene formation at 5 umol/L preincubated for 1 hr before Cu2+ challenge measured after 120 mins
[10] = Antioxidant activity against Cu2+-induced lipid peroxidation in human plasma LDL assessed as maximal compound concentration at 10 umol/L preincubated for 1 hr before Cu2+ challenge measured after 180 mins relative to compound present at 0 min
[11] = Antioxidant activity against Cu2+-induced lipid peroxidation in human plasma LDL assessed as maximal compound concentration at 5 umol/L preincubated for 1 hr before Cu2+ challenge measured after 120 mins relative to compound present at 0 min
[12] = Antioxidant activity against Cu2+-induced lipid peroxidation in human plasma LDL assessed as vitamin E consumption at 20 umol/L preincubated for 1 hr before Cu2+ challenge measured after 90 mins
[13] = Antioxidant activity against Cu2+-induced lipid peroxidation in human plasma LDL assessed as vitamin E consumption at 20 umol/L preincubated for 1 hr before Cu2+ challenge measured after 270 mins
[14] = Antioxidant activity against Cu2+-induced lipid peroxidation in human plasma LDL assessed as lysophosphatidylcholine formation at 20 umol/L preincubated for 1 hr before Cu2+ challenge measured after 60 mins
[15] = Antioxidant activity against Cu2+-induced lipid peroxidation in human plasma LDL assessed as lysophosphatidylcholine formation at 10 umol/L preincubated for 1 hr before Cu2+ challenge measured after 210 mins
[16] = Antioxidant activity against Cu2+-induced lipid peroxidation in human plasma LDL assessed as lysophosphatidylcholine formation at 5 umol/L preincubated for 1 hr before Cu2+ challenge measured after 150 mins
[17] = Antioxidant activity against Cu2+-induced lipid peroxidation in human plasma LDL assessed as maximal compound concentration at 5 umol/L preincubated for 1 hr before Cu2+ challenge measured after 270 mins relative to compound present at 0 min
[18] = Antioxidant activity against Cu2+-induced lipid peroxidation in human plasma LDL assessed as conjugated diene formation at 10 umol/L preincubated for 1 hr before Cu2+ challenge measured after 60 mins
[19] = Antioxidant activity against Cu2+-induced lipid peroxidation in human plasma LDL assessed as conjugated diene formation at 10 umol/L preincubated for 1 hr before Cu2+ challenge measured after 150 mins
[20] = Antioxidant activity against Cu2+-induced lipid peroxidation in human plasma LDL assessed as vitamin E consumption at 5 umol/L preincubated for 1 hr before Cu2+ challenge measured after 60 mins
[21] = Antioxidant activity against Cu2+-induced lipid peroxidation in human plasma LDL assessed as conjugated diene formation at 5 umol/L preincubated for 1 hr before Cu2+ challenge measured after 150 mins
[22] = Antioxidant activity against Cu2+-induced lipid peroxidation in human plasma LDL assessed as conjugated diene formation at 20 umol/L preincubated for 1 hr before Cu2+ challenge measured after 60 mins
[23] = Antioxidant activity against Cu2+-induced lipid peroxidation in human plasma LDL assessed as lysophosphatidylcholine formation at 20 umol/L preincubated for 1 hr before Cu2+ challenge measured after 270 mins
[24] = Antioxidant activity against Cu2+-induced lipid peroxidation in human plasma LDL assessed as lysophosphatidylcholine formation at 20 umol/L preincubated for 1 hr before Cu2+ challenge measured after 360 mins
[25] = Antioxidant activity against Cu2+-induced lipid peroxidation in human plasma LDL assessed as vitamin E consumption at 10 umol/L preincubated for 1 hr before Cu2+ challenge measured after 150 mins
[26] = Antioxidant activity against Cu2+-induced lipid peroxidation in human plasma LDL assessed as maximal compound concentration at 5 umol/L preincubated for 1 hr before Cu2+ challenge measured after 30 mins relative to compound present at 0 min
[27] = Antioxidant activity against Cu2+-induced lipid peroxidation in human plasma LDL assessed as conjugated diene formation at 5 umol/L preincubated for 1 hr before Cu2+ challenge measured after 360 mins
[28] = Antioxidant activity against Cu2+-induced lipid peroxidation in human plasma LDL assessed as vitamin E consumption at 10 umol/L preincubated for 1 hr before Cu2+ challenge measured after 45 mins
[29] = Antioxidant activity against Cu2+-induced lipid peroxidation in human plasma LDL assessed as maximal compound concentration at 10 umol/L preincubated for 1 hr before Cu2+ challenge measured after 210 mins relative to compound present at 0 min
[30] = Antioxidant activity against Cu2+-induced lipid peroxidation in human plasma LDL assessed as conjugated diene formation at 5 umol/L preincubated for 1 hr before Cu2+ challenge measured after 270 mins
[31] = Antioxidant activity against Cu2+-induced lipid peroxidation in human plasma LDL assessed as conjugated diene formation at 20 umol/L preincubated for 1 hr before Cu2+ challenge measured after 210 mins
[32] = Antioxidant activity against Cu2+-induced lipid peroxidation in human plasma LDL assessed as lysophosphatidylcholine formation at 5 umol/L preincubated for 1 hr before Cu2+ challenge measured after 60 mins
[33] = Antioxidant activity against Cu2+-induced lipid peroxidation in human plasma LDL assessed as lysophosphatidylcholine formation at 20 umol/L preincubated for 1 hr before Cu2+ challenge measured after 180 mins
[34] = Antioxidant activity against Cu2+-induced lipid peroxidation in human plasma LDL assessed as maximal compound concentration at 5 umol/L preincubated for 1 hr before Cu2+ challenge measured after 210 mins relative to compound present at 0 min

CC(C)(Sc1cc(C(C)(C)C)c(O)c(C(C)(C)C)c1)Sc1cc(C(C)(C)C)c(O)c(C(C)(C)C)c1
Activity [1]: 100% | Activity [2]: 0.7% | Activity [3]: 19.9% | Activity [4]: 79.9% | Activity [5]: 29.1% | Activity [6]: 23.1% | Activity [7]: 91.8% | Activity [8]: 7.5% | Activity [9]: 78.6% | Activity [10]: 31.2% | Activity [11]: 56.5% | Activity [12]: 0% | Activity [13]: 0% | Activity [14]: 1.2% | Activity [15]: 9.1% | Activity [16]: 17.5% | Activity [17]: 22.5% | Activity [18]: 0.6% | Activity [19]: 77.2% | Activity [20]: 0% | Activity [21]: 78.3% | Activity [22]: 1.3% | Activity [23]: 1.5% | Activity [24]: 1.9% | Activity [25]: 0% | Activity [26]: 94.8% | Activity [27]: 100% | Activity [28]: 11% | Activity [29]: 21.6% | Activity [30]: 87.1% | Activity [31]: 2.6% | Activity [32]: 2.5% | Activity [33]: 1.5% | Activity [34]: 36.8%
